Reference: patent US5189025A, “Methods for the treatment of malignant disease in patients using citrulline containing amino acid solutions” (priority 1990, dated 1993)
Entries after “also recorded” stand apart in the source; their conditions may differ. Where two headings read alike, the source gives them in different places.

Experiments:
[1] = system: DFMO-induced thrombocytopenia; assay: Influence of ornithine co-administration on DFMO-induced thrombocytopenia in the rat (Table VI); conditions: 12 days continuous infusion
[2] = system: polyamine levels (erythrocyte and tumor); assay: RBC and tumor polyamine levels in tumor-bearing rats infused with amino acid solutions (Example II, Table IV); assay type: in vivo, male Fisher 344 rats; conditions: infusion alone, not in combination with essential amino acids; experimental tumor system
Description: A methylcholanthrene-induced fibrosarcoma (0.17 g) was implanted as a brei into the right flank under anesthesia and the animals were fed a chow diet for 21 days. When the tumors were at least 1.0 cm in width, two-dimensional measurements with calipers were instituted and the equation, length (cm)×(width [cm])^2 ×1/2=grams of tumor tissue, was used to estimate tumor weight. […] The animals were then allowed to recover overnight and continuous infusions were started the next morning. […] Nephramine is a parenteral amino acid solution consisting of eight essential amino acids and histidine. After 6 days of continuous infusion, the animals were sacrificed by aortic bleeding. Liver and tumor were excised and weighed and kept frozen at -70° C. until assays were done. Only viable, nonnecrotic tumor tissue was saved and assayed.
Preparation of tumor tissue for polyamine assay was done in the following manner. Tumor tissue weighing 0.5 to 1.5 g was cut into small pieces and put into a disposable tube (16×100 mm). Ice-cold 4% sulfosalicylic acid was then added at 2 ml/g wet tissue. This mixture was homogenized in an ice bath for 40 seconds using the Brinkman Polytron homogenizer (P10ST generator set at 8.5). The suspension was centrifuged at 100,000 g for 30 minutes and the resulting clear supernatant was analyzed for polyamines on a Durrum D-500 amino acid analyzer.

RBC putrescine levels = assay: RBC putrescine in tumor-bearing and non tumor-bearing rats infused with feeding solutions (Table V); conditions: vs chow or essential amino acids only
Description: Another experiment which utilized formulations containing amino acid precursors of RBC polyamines, compared the response of tumor-bearing rats (TB) to non tumor-bearing rats (NTB). The study was performed basically in the manner described above with the following indicated differences. […] Chow rats (C) were fed chow with no i.v. infusion.
Where N is the number of rats included in the study, PUT is RBC levels (nm/g/ml, means±SD) of putrescine determined by HPLC.

[3] = system: platelet counts / host toxicity; assay: DFMO toxicity, continuous i.v. infusion for 12 days in rats (FIG. 3); assay type: in vivo
Description: FIG. 3. […] Bars indicate standard deviation.
In the above described rat model, a continuous infusion of DFMO was given through a central venous catheter.

[4] = system: platelet counts / host toxicity; design: species or system human (patients with advanced colorectal carcinoma); conditions: human, in vivo
Description: FIG. 4. Platelet counts plotted against days of continuous i.v. DFMO infusion in patients with advanced colorectal carcinoma. […] The paired points are connected by a straight line.
There was no incidence of nausea, vomiting or diarrhea.

MCA sarcoma = assay: DFMO effect on growth of MCA sarcoma; assay type: in vivo
[5] = system: DFMO-induced thrombocytopenia; conditions: rat, in vivo

With `NCCC[C@H](N)C(=O)O` [ornithine] the “platelet suppression / change in platelet count” value [1] was “blocked platelet suppression; also recorded: significant reversal in the platelet suppression”.

`N=C(N)NCCC[C@H](N)C(=O)O` [arginine] was tested, and the blood polyamine levels [2] was “has not produced elevated blood polyamine levels” and the “increase in RBC putrescine levels in NTB rats” value (RBC putrescine levels) was “significantly greater (p<0.05)”.

`NCCCC(N)(C(=O)O)C(F)F` (centres unmarked) [DFMO, Difluoromethylornithine] was tested, and the clinical toxicity ([3]; 12 day study) was “no significant clinical toxicity”, the “White cell count and hematocrit changes” value ([3]; rat, in vivo) was “not significantly altered” and the White cell count [4] was “not affected by either dose”. The “decreased hearing acuity (patients)” value [4] was “two patients”, the hematocrit [4] was “Significant suppression of the hematocrit” and the “nausea, vomiting or diarrhea” value [4] was “no incidence”. For the same compound, the platelet suppression [4] was “platelet suppression is the major limiting host toxicity”, the “platelet suppression, 8 g compared with 6 g dose” value [4] was “significantly greater platelet suppression at the 8 g dose” and the tumor regression (MCA sarcoma; MCA sarcoma) was “does not produce tumor regression”. The “growth rate of an MCA sarcoma” value (MCA sarcoma; in vivo) was “reduces the growth rate”, the Platelets [5] was 409 ± 127 × 10^3 /cu. mm and the “platelet suppression / change in platelet count” value [5] was “significant decrease in platelet count as compared with the saline treatment”. For the same compound, the “decrease in tumor putrescine levels” value (tumor putrescine levels; DFMO infusion, rat-tumor model) was 90% and the peripheral platelet counts (tumor putrescine levels; rat, in vivo) was “without suppressing peripheral platelet counts”.
